In patent publication US12077503B2, “Substituted cyclic amides and their use as herbicides” (FMC CORPORATION, priority 2015, dated 2024):

Legend:
Type in all cases: in vivo
[1] = test system: barnyardgrass (Echinochloa crus-galli); experiment: Test B flooded paddy test; conditions: Flood, 250 g ai/ha
Outline: (§1)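 Greenhouse paddy pots with 2-leaf stage plants received compound by direct addition to floodwater 3 cm deep, kept at that level. Scored visually at 13–15 d versus controls (0 no effect; 100 complete control).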

[2] = test system: ducksalad (Heteranthera limosa); experiment: Test B flooded paddy test; conditions: Flood, 250 g ai/ha
Outline: as §1

[3] = test system: sedge, umbrella (small-flower umbrella sedge, Cyperus difformis); experiment: Test B flooded paddy test; conditions: Flood, 250 g ai/ha, 0 to 100 scale where 0 is no effect and 100 is complete control
Outline: as §1

rice (Oryra sativa) = experiment: Test B flooded paddy test; conditions: Flood, 250 g ai/ha
Outline: as §1

[4] = test system: Galium (catchweed bedstraw, Galium aparine); experiment: Test A postemergence
Outline: (§2)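 Compounds were formulated in a non-phytotoxic solvent mixture with surfactant and applied as a preemergence directed soil spray after seeding, or sprayed postemergence over plants 2 to 10 cm tall at the one- to two-leaf stage. Evaluation after about 10 d compared treated with untreated controls, using a scale from 0 (no effect) to 100 (complete control).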

[5] = test system: barnyardgrass (Echinochloa crus-galli); experiment: Test A postemergence
Outline: as §2

corn (Zea mays) = experiment: Test A postemergence
Outline: as §2

[6] = test system: wheat (Triticum aestivum); experiment: Test A postemergence
Outline: as §2

[7] = test system: ryegrass, Italian (Italian ryegrass, Lolium multiflorum); experiment: Test A postemergence
Outline: as §2

[8] = test system: giant foxtail (Setaria faberii); experiment: Test A postemergence
Outline: as §2

Kochia (Kochia scoparia) [9] = experiment: Test A postemergence
Outline: as §2

[10] = test system: ragweed (common ragweed, Ambrosia elatior); experiment: Test A postemergence
Outline: as §2

[11] = test system: blackgrass (Alopecurus myosuroides); experiment: Test A postemergence
Outline: as §2

[12] = test system: pigweed (Amaranthus retroflexus); experiment: Test A postemergence
Outline: as §2

[13] = test system: barnyardgrass (Echinochloa crus-galli); experiment: Test A preemergence
Outline: as §2

[14] = test system: ryegrass, Italian (Italian ryegrass, Lolium multiflorum); experiment: Test A preemergence
Outline: as §2

[15] = test system: giant foxtail (Setaria faberii); experiment: Test A preemergence
Outline: as §2

Kochia (Kochia scoparia) [16] = experiment: Test A preemergence
Outline: as §2

[17] = test system: ragweed (common ragweed, Ambrosia elatior); experiment: Test A preemergence
Outline: as §2

[18] = test system: pigweed (Amaranthus retroflexus); experiment: Test A preemergence
[19] = 0 to 100 scale where 0 is no effect and 100 is complete control, 13 to 15 d
[20] = 125 g ai/ha, postemergence, visual rating after approx. 10 d, 0 to 100 scale (0 no effect, 100 complete control)
[21] = 500 g ai/ha, postemergence, visual injury, 0 to 100 scale (0 no effect, 100 complete control), approx. 10 d
[22] = 125 g ai/ha, Preemergence, visual injury after approximately 10 d, 0 to 100 scale where 0 is no effect and 100 is complete control
[23] = 500 g ai/ha, preemergence, 0 to 100 scale, 0 = no effect, 100 = complete control
[24] = scale of 0 to 100 where 0 is no effect and 100 is complete control
[25] = 125 g ai/ha, Postemergence, visual injury after approximately 10 d, 0 to 100 scale where 0 is no effect and 100 is complete control
[26] = 125 g ai/ha, Preemergence, visual injury rating after approximately 10 d
[27] = 500 g ai/ha, preemergence, visual injury rating about 10 d after treatment, 0 to 100 scale (0 no effect, 100 complete control)

CC(C)Oc1cccc(C2CN(C)C(=O)C2C(=O)Nc2ccccc2C(F)(F)F)c1 (centres unmarked) [Compound 652]
Plant response rating, Barnyardgrass [1, 19]: 40 | Plant response rating, Ducksalad [2, 19]: 65 | Plant response rating, Sedge, Umbrella ([3]; 13 to 15 d): 0 | Plant response rating, Rice (rice (Oryra sativa); [19]): 0 | Plant response rating, Galium [4, 20]: 30 | Plant response rating, Galium [4, 21]: 50 | Plant response rating, Barnyardgrass [5, 20]: 90 | Plant response rating, Barnyardgrass [5, 21]: 90 | Plant response rating, Corn (corn (Zea mays); [20]): 30 | Plant response rating, Corn (corn (Zea mays); [21]): 60 | Plant response rating, Wheat [6, 20]: 0 | Plant response rating, Wheat [6, 21]: 40 | Plant response rating, Ryegrass, Italian [7, 20]: 50 | Plant response rating, Ryegrass, Italian [7, 21]: 70 | Plant response rating, Foxtail, Giant [8, 20]: 80 | Plant response rating, Foxtail, Giant [8, 21]: 90 | Plant response rating, Kochia (Kochia (Kochia scoparia) [9]; [20]): 0 | Plant response rating, Kochia (Kochia (Kochia scoparia) [9]; [21]): 0 | Plant response rating, Ragweed [10, 20]: 0 | Plant response rating, Ragweed [10, 21]: 0 | Plant response rating, Blackgrass [11, 20]: 60 | Plant response rating, Blackgrass [11, 21]: 70 | Plant response rating, Pigweed [12, 20]: 0 | Plant response rating, Pigweed [12, 21]: 20 | Plant response rating, Barnyardgrass [13, 22]: 90 | Plant response rating, Barnyardgrass [13, 23]: 90 | Plant response rating, Ryegrass, Italian [14, 22]: 60 | Plant response rating, Ryegrass, Italian [14, 23]: 60 | Plant response rating, Foxtail, Giant [15, 22]: 100 | Plant response rating, Foxtail, Giant [15, 23]: 100 | Plant response rating, Kochia (Kochia (Kochia scoparia) [16]; [22]): 0 | Plant response rating, Kochia (Kochia (Kochia scoparia) [16]; [23]): 30 | Plant response rating, Ragweed [17, 22]: 0 | Plant response rating, Ragweed [17, 23]: 0 | Plant response rating, Pigweed [18, 22]: 0 | Plant response rating, Pigweed [18, 23]: 30

Cc1ccc([C@H]2CN(C)C(=O)[C@@H]2C(=O)Nc2ccccc2[S+](C)[O-])cc1F (some centres unmarked) [Compound 988]
Barnyardgrass plant response rating [1, 24]: 75 | Ducksalad plant response rating [2, 24]: 100 | Sedge, Umbrella plant response rating [3]: 0 | Rice plant response rating (rice (Oryra sativa); [24]): 20 | Plant response rating, Galium [4, 25]: 50 | Plant response rating, Barnyardgrass [5, 25]: 80 | Plant response rating, Corn (corn (Zea mays); [25]): 20 | Plant response rating, Wheat [6, 25]: 30 | Plant response rating, Ryegrass, Italian [7, 25]: 20 | Plant response rating, Foxtail, Giant [8, 25]: 80 | Plant response rating, Kochia (Kochia (Kochia scoparia) [9]; [25]): 10 | Plant response rating, Ragweed [10, 25]: 0 | Plant response rating, Blackgrass [11, 25]: 30 | Plant response rating, Pigweed [12, 25]: 0 | Barnyardgrass plant response rating (0 to 100 scale, 0 is no effect, 100 is complete control) [13, 26]: 90 | Barnyardgrass plant response rating [13, 27]: 90 | Ryegrass, Italian plant response rating (0 to 100 scale, 0 is no effect, 100 is complete control) [14, 26]: 0 | Ryegrass, Italian plant response rating [14, 27]: 20 | Foxtail, Giant plant response rating (0 to 100 scale, 0 is no effect, 100 is complete control) [15, 26]: 90 | Foxtail, Giant plant response rating [15, 27]: 90 | Kochia plant response rating (0 to 100 scale, 0 is no effect, 100 is complete control) (Kochia (Kochia scoparia) [16]; [26]): 30 | Kochia plant response rating (Kochia (Kochia scoparia) [16]; [27]): 80 | Ragweed plant response rating (0 to 100 scale, 0 is no effect, 100 is complete control) [17, 26]: 50 | Ragweed plant response rating [17, 27]: 80 | Pigweed plant response rating (0 to 100 scale, 0 is no effect, 100 is complete control) [18, 26]: 30 | Pigweed plant response rating [18, 27]: 40
